Laboratory results: patent US11040028B2, “Penicinotam derivative, preparation method and use thereof” (OCEAN UNIVERSITY OF CHINA, priority 2017, dated 2021)

Experiments:
Format in all cases: cell-based
BHK-21 cells = assay: Anti-fibrosis activity test: inhibition of BHK-21 cell proliferation (CCK-8); details: Mesocricetus auratus, BHK-21, 48 h
In short: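 BHK-21 cells seeded at 2×10^4 cells/mL, allowed to adhere 24 h at 37° C, 5% CO2, then exposed to compounds at graded concentrations in triplicate for 48 h. CCK-8 added for 2 h and absorbance read at 450 nm; inhibition rate taken as (1−Ai/Ao)×100% and IC50 fitted.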

[1] = test system: human lung fibroblasts HFL1; assay: Anti-fibrosis activity test: inhibition of proliferation of human lung fibroblasts HFL1 (CCK-8); details: Homo sapiens, HFL1, 48 h
In short: (§1)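 Cells were seeded at 2×10^4 cells/mL and allowed to adhere for 24 h at 37° C, 5% CO2, then exposed to graded compound concentrations in triplicate for 48 h. CCK-8 was added for 2 h, A450 was read, and IC50 was derived from inhibition rate = (1−Ai/Ao)×100%.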

[2] = test system: human hepatic stellate cells LX-2; assay: Anti-fibrosis activity test: inhibition of proliferation of human hepatic stellate cells LX-2 (CCK-8); details: Homo sapiens, 48 h
In short: as §1

[3] = test system: human fibrosarcoma cells HT-1080; assay: Anti-fibrosis activity test: inhibition of proliferation of human fibrosarcoma cells HT-1080 (CCK-8); details: Homo sapiens, HT-1080, 48 h
In short: as §1

[4] = test system: human dermal fibroblasts CCC-ESF-1; assay: Anti-fibrosis activity test: inhibition of proliferation of human dermal fibroblasts CCC-ESF-1 (CCK-8); details: Fibroblast
In short: as §1

[5] = test system: human embryonic lung fibroblast IMR-90; assay: Anti-fibrosis activity test: inhibition of proliferation of human embryonic lung fibroblast IMR-90 (CCK-8)
In short: as §1

[6] = test system: cardiac fibroblast RAT-iCell-C002; assay: Anti-fibrosis activity test: inhibition of proliferation of cardiac fibroblast RAT-iCell-C002 (CCK-8); details: Cardiac fibroblast, 48 h
In short: as §1

[7] = test system: mouse macrophages (RAW264.7); assay: Lipopolysaccharide-induced NO secretion in macrophages (Griess); details: Mus musculus, RAW264.7, 24 h, RAW264.7, LPS 1 μg/ml, a/b isomers given as first/second symbol, read-out: IC50 (μM), inhibition of lipopolysaccharide-induced NO secretion in macrophages
Procedure: The effects of the compounds of the present application on the lipopolysaccharide-induced NO secretion in macrophage was tested Principle: Anti-inflammatory drug activity screening is to detect the inhibitory effect of compounds on NO production in the mouse macrophages (RAW264.7). When immune cells are stimulated by microbial endotoxin, inflammatory mediators, etc., a large amount of induced NO synthase (iNOS) is produced, and thus NO is generated for immune response. Accordingly, the inhibition of NO production can serve as a direct indicator of the anti-inflammatory activity of the compound. The activity of the compound to inhibit NO production at the cellular level is directly evaluated in the abovementioned test model, thereby reflecting the anti-inflammatory activity of the compound. In this experiment, the content of NO in the medium was detected by Gris kit (Molecular probes, G-7921). Macrophages (Raw264.7) were cultured in DMEM medium containing 10% fetal bovine serum, with the cell concentration adjusted. The cells were seeded in 24-well cell culture plates, cultured in an incubator, and the test samples in different concentrations were added every other day. The blank medium was used as a blank control, and commercially available indomethacin and resveratrol were employed as positive controls. After the addition of lipopolysaccharide (LPS, 1 μg/ml), incubation was performed for 24 hours. Then the supernatant culture solution was taken, to […] reagent was added, and the absorbance value was measured by a microplate reader at 548 nm. Inhibition rate=([…])×100%.

[8] = CCK-8, 48 hours after administration
[9] = human lung fibroblasts HFL1, CCK-8, 48 hours
[10] = human hepatic stellate cells LX-2, CCK-8, 48 hours
[11] = human fibrosarcoma cells HT-1080, CCK-8, 48 hours
[12] = human dermal fibroblasts CCC-ESF-1, CCK-8, 48 hours
[13] = human embryonic lung fibroblast IMR-90, CCK-8, 48 hours
[14] = cardiac fibroblast RAT-iCell-C002, CCK-8, 48 hours
[15] = Homo sapiens, CCC-ESF-1 cells, 48 h, CCK-8
[16] = Homo sapiens, IMR-90 cells, 48 h, CCK-8

Structure (SMILES)	IC50 (BHK-21 cells; [8]) [mM]	IC50 [1, 9] [mM]	IC50 [2, 10] [mM]	IC50 [3, 11] [mM]	IC50 [4, 12] [mM]	IC50 [5, 13] [mM]	IC50 [6, 14] [mM]	IC50 [7] [µM]	IC50 (BHK-21 cells; 48 h, CCK-8) [mM]	IC50 ([1]; HFL1 cells, 48 h, CCK-8) [mM]	IC50 ([2]; LX-2, 48 h, LX-2 cells, CCK-8) [mM]	IC50 ([3]; HT-1080 cells, 48 h, CCK-8) [mM]	IC50 [4, 15] [mM]	IC50 [5, 16] [mM]	IC50 ([6]; RAT-iCell-C002 cells, CCK-8) [mM]
O=C1c2c(nc3ccc(F)cc3c2OC2CC2)-c2cccn21 [Compound 144b, 9-cyclopropoxy-7-fluoro-10H-pyrrolizino[1,2-b]quinolin-10-one]	0.05 to 5	0.05 to 5	< 0.05	0.05 to 5	0.05 to 5	0.05 to 5	0.05 to 5	1 to 10							
O=C1c2c([nH]c3cccc(O)c3c2=O)-c2cccn21 [Compound 470a, 8-Hydroxy-9H-pyrrolizino[1,2-b]quinoline-9,10(4H)-dione]	0.05 to 5	0.05 to 5	0.05 to 5	0.05 to 5	0.05 to 5	0.05 to 5	0.05 to 5	0.1 to 1							
N#Cc1c(N2CCNCC2)ccc2c(OCc3ccc(F)cc3)c3c(nc12)-c1cccn1C3=O [Compound 482b, 9-((4-fluorobenzyl)oxy)-10-oxo-6-(piperazin-1-yl)-10H-pyrrolizino[1,2-b]quinoline-5-carbonitrile]	0.05 to 5	0.05 to 5	0.05 to 5	< 0.05	0.05 to 5	0.05 to 5	0.05 to 5	1 to 10							
CCOc1c2c(nc3ccc(F)cc13)-c1cccn1C2=O [Compound 104b, 9-ethoxy-7-fluoro-10H-pyrrolizino[1,2-b]quinolin-10-one]	0.05 to 5	0.05 to 5	0.05 to 5	0.05 to 5	0.05 to 5	0.05 to 5	0.05 to 5	1 to 10							
O=C1c2c(nc3c(Cl)cccc3c2OCc2ccc(Cl)cc2)-c2cccn21 [Compound 451b, 5-chloro-9-((4-chlorobenzyl)oxy)-10H-pyrrolizino[1,2-b]quinolin-10-one]	0.05 to 5	< 0.05	0.05 to 5	0.05 to 5	0.05 to 5	0.05 to 5	0.05 to 5	1 to 10							
O=C1c2c(nc3cc(F)ccc3c2OCc2cccc(Cl)c2)-c2cccn21 [Compound 497b, 9-((3-chlorobenzyl)oxy)-6-fluoro-10H-pyrrolizino[1,2-b]quinolin-10-one]	0.05 to 5	0.05 to 5	0.05 to 5	0.05 to 5	0.05 to 5	0.05 to 5	0.05 to 5	1 to 10							
O=C1c2c(nc3c(F)c(N4CCNCC4)ccc3c2OCc2ccc(Cl)cc2)-c2cccn21 [Compound 484b, 9-((4-chlorobenzyl)oxy)-5-fluoro-6-(piperazin-1-yl)-10H-pyrrolizino[1,2-b]quinolin-10-one]	0.05 to 5	0.05 to 5	0.05 to 5	0.05 to 5	0.05 to 5	0.05 to 5	0.05 to 5	1 to 10							
O=C1c2c(n(Cc3ccc(Cl)cc3)c3cccc(C(F)(F)F)c3c2=O)-c2cccn21 [Compound 465a, 4-(4-Chlorobenzyl)-8-(trifluoromethyl)-9H-pyrrolizino[1,2-b]quinoline-9,10(4H)-dione]	0.05 to 5	0.05 to 5	0.05 to 5	0.05 to 5	0.05 to 5	0.05 to 5	0.05 to 5	0.1 to 1							
O=C1c2c(n(Cc3ccccc3F)c3cc(Cl)ccc3c2=O)-c2cccn21 [Compound 504a, 6-Chloro-4-(2-fluorobenzyl)-9H-pyrrolizino[1,2-b]quinoline-9,10(4H)-dione]	< 0.05	0.05 to 5	0.05 to 5	0.05 to 5	0.05 to 5	0.05 to 5	0.05 to 5	1 to 10							
CC(C)n1c2c(c(=O)c3cc(F)ccc31)C(=O)n1cccc1-2 [Compound 108a, 7-Fluoro-4-isopropyl-9H-pyrrolizino[1,2-b]quinoline-9,10(4H)-dione]	0.05 to 5	0.05 to 5	0.05 to 5	5 to 20	0.05 to 5	0.05 to 5	0.05 to 5	1 to 10							
O=C1c2c(nc3cccc(F)c3c2OCc2ccc(Cl)cc2)-c2cccn21 [Compound 471b, 9-((4-chlorobenzyl)oxy)-8-fluoro-10H-pyrrolizino[1,2-b]quinolin-10-one]	0.05 to 5	0.05 to 5	0.05 to 5	0.05 to 5	0.05 to 5	0.05 to 5	0.05 to 5	1 to 10							
O=C1c2c(n(Cc3ccc(F)cc3)c3c(Cl)cccc3c2=O)-c2cccn21 [Compound 481a, 5-Chloro-4-(4-fluorobenzyl)-9H-pyrrolizino[1,2-b]quinoline-9,10(4H)-dione]	< 0.05	0.05 to 5	0.05 to 5	0.05 to 5	0.05 to 5	0.05 to 5	0.05 to 5	10 to 50							
Cc1ccc2c(=O)c3c([nH]c2c1)C(=O)n1cccc1-3 [Compound 778a, 8-Methyl-5H-pyrrolizino[2,1-b]quinoline-5,11(6H)-dione]								10 to 50	0.05 to 5	0.05 to 5	0.05 to 5	0.05 to 5	0.05 to 5	0.05 to 5	0.05 to 5
Cc1cccc2c(=O)c3c([nH]c12)C(=O)n1cccc1-3 [Compound 779a, 7-Methyl-5H-pyrrolizino[2,1-b]quinoline-5,11(6H)-dione]								10 to 50	0.05 to 5	0.05 to 5	0.05 to 5	0.05 to 5	0.05 to 5	0.05 to 5	0.05 to 5
O=C1c2c(n(Cc3ccc(Cl)cc3)c3cc(Cl)ccc3c2=O)-c2cccn21 [Compound 508a, 6-Chloro-4-(4-chlorobenzyl)-9H-pyrrolizino[1,2-b]quinoline-9,10(4H)-dione]	0.05 to 5	0.05 to 5	0.05 to 5	5 to 20	0.05 to 5	0.05 to 5	0.05 to 5	1 to 10							
O=C1c2c(n(CCO)c3cc(N4CCNCC4)c(F)cc3c2=O)-c2cccn21 [Compound 348a, 7-Fluoro-4-(2-hydroxyethyl)-6-(piperazin-1-yl)-9H-pyrrolizino[1,2-b]quinoline-9,10(4H)-dione]	20 to 100	0.05 to 5	0.05 to 5	0.05 to 5	0.05 to 5	0.05 to 5	0.05 to 5	1 to 10							
O=C1c2c(n(-c3ccc(Cl)cc3)c3ccc(C(F)(F)F)cc3c2=O)-c2cccn21 [Compound 276a, 4-(4-Chlorophenyl)-7-(trifluoromethyl)-9H-pyrrolizino[1,2-b]quinoline-9,10(4H)-dione]	< 0.05	0.05 to 5	0.05 to 5	0.05 to 5	0.05 to 5	0.05 to 5	5 to 20	0.1 to 1							
O=C1c2c([nH]c3cccc(F)c3c2=O)-c2cccn21 [Compound 467a, 8-Fluoro-9H-pyrrolizino[1,2-b]quinoline-9,10(4H)-dione]	< 0.05	0.05 to 5	0.05 to 5	0.05 to 5	0.05 to 5	0.05 to 5	0.05 to 5	1 to 10							
Cc1cc(C)c2nc3c(c(O)c2c1)-c1cccn1C3=O [Compound 780b, 11-hydroxy-7,9-dimethyl-5H-pyrrolizino[2,1-b]quinolin-5-one]								1 to 10	0.05 to 5	0.05 to 5	0.05 to 5	0.05 to 5	0.05 to 5	0.05 to 5	0.05 to 5
